Test results reported in the supplement of paper PMC10331698.
± gives the standard deviation of the averaged measurements.

How the values were obtained:
Assay in all cases: level (log10 ratio to DMSO vehicle control); higher = higher biomarker level / cell amount than vehicle control
[1] = compound: CCOC(=O)CC(=O)C(F)(F)C(F)(F)F [Ethyl pentafluoropropionyl acetate] (in DMSO)
Method: (§1)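 BioMAP Diversity Plus panel of 12 human primary cell co-culture systems (3C, 4H, LPS, SAg, BT, BF4T, BE3C, CASM3C, HDF3CGF, KF3CT, MyoF, Mphg). Compounds were added 1 h before stimulation and left for 24 h (MyoF 48 h; BT 72 h for soluble read-outs or 6 d for IgG). Biomarkers were read by ELISA, cytotoxicity by SRB, PBMC viability and proliferation by Alamar Blue. Each well value was divided by the mean of 8 DMSO control wells on the same plate and log10 transformed; duplicate blinded samples were tested at 4 concentrations.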

[2] = compound: O=C(O)C(F)(F)OC(F)(F)C(F)(F)OC(F)(F)C(F)(F)OC(F)(F)C(F)(F)C(F)(F)C(F)(F)F [Perfluoro-3,6,9-trioxatridecanoic acid] (in DMSO); details: 6700 nM
Method: as §1

[3] = compound: O=S(=O)(O)CCC(F)(F)C(F)(F)C(F)(F)C(F)(F)C(F)(F)C(F)(F)C(F)(F)C(F)(F)F [8:2 Fluorotelomer sulfonic acid] (in DMSO)
Method: as §1

[4] = compound: O=S(=O)(O)C(F)(F)C(F)(F)OC(F)(F)C(F)(F)F [Perfluoro(2-ethoxyethane)sulfonic acid] (in DMSO)
Method: as §1

[5] = compound: O=C(O)C=C(C(F)(F)F)C(F)(F)F [3,3-Bis(trifluoromethyl)-2-propenoic acid] (in DMSO)
Method: as §1

[6] = compound: NS(=O)(=O)C(F)(F)C(F)(F)C(F)(F)C(F)(F)C(F)(F)C(F)(F)C(F)(F)C(F)(F)F [Perfluorooctanesulfonamide] (in DMSO)
Method: as §1

[7] = compound: CN(C(=O)C(F)(F)C(F)(F)C(F)(F)F)[Si](C)(C)C [N-Methyl-N-trimethylsilylheptafluorobutyramide] (in DMSO)
Method: as §1

Row | Test System | level (log10) ([1]; 6700 nM) | level (log10) ([1]; 20000 nM) | level (log10) ([1]; 60000 nM) | level (log10) [2] | level (log10) ([3]; 6700 nM) | level (log10) ([3]; 20000 nM) | level (log10) ([3]; 60000 nM) | level (log10) ([4]; 6700 nM) | level (log10) ([4]; 20000 nM) | level (log10) ([4]; 60000 nM) | level (log10) ([5]; 6700 nM) | level (log10) ([5]; 20000 nM) | level (log10) ([5]; 60000 nM) | level (log10) ([6]; 6700 nM) | level (log10) ([6]; 20000 nM) | level (log10) ([7]; 6700 nM) | level (log10) ([7]; 20000 nM) | level (log10) ([7]; 60000 nM)
1 | SAg:CD38 | -0.0055 ± 0.049 | 0.019 ± 0.045 | -0.0175 ± 0.0021 | 0.0175 ± 0.026 | -0.0175 ± 0.04 | -0.02 ± 0.034 | -0.0595 ± 0.053 | -0.0005 ± 0.03 | -0.004 ± 0.023 | -0.0125 ± 0.016 | 0.0025 ± 0.013 | -0.019 ± 0.017 | -0.073 ± 0.0028 | -0.006 ± 0.0071 | -0.089 ± 0.016 | -0.0015 ± 0.019 | -0.009 ± 0.0014 | 0.0115 ± 0.023
2 | BE3C:IL-1alpha | 0.0125 ± 0.03 | -0.011 ± 0.044 | 0.0285 ± 0.005 | -0.469 ± 0.052 | 0.016 ± 0.027 | -0.0055 ± 0.0064 | -0.043 ± 0.037 | 0.0015 ± 0.0021 | 0.0045 ± 0.0035 | 0.0085 ± 0.005 | 0.012 ± 0.02 | 0.0005 ± 0.0092 | 0.001 ± 0.023 | -0.005 ± 0.023 | -0.066 ± 0.017 | 0.0045 ± 0.005 | -0.0075 ± 0.019 | 0.032 ± 0.014
3 | BT:sIL-17A | -0.088 ± 0.0014 | -0.0195 ± 0.032 | -0.0685 ± 0.081 | 0.0515 ± 0.14 | -0.152 ± 0.057 | -0.012 ± 0.013 | -0.0805 ± 0.16 | -0.0995 ± 0.17 | -0.131 ± 0.05 | -0.148 ± 0.19 | 0.0535 ± 0.043 | -0.246 ± 0.1 | -0.482 ± 0.0028 | -0.0315 ± 0.16 | 0.0435 ± 0.052 | -0.0195 ± 0.073 | -0.192 ± 0.11 | 0.071 ± 0.0042
4 | 3C:Proliferation | -0.0145 ± 0.043 | -0.033 ± 0.011 | -0.0135 ± 0.026 | 0.0425 ± 0.016 | 0.004 ± 0.086 | -0.0315 ± 0.083 | -0.053 ± 0.018 | -0.043 ± 0.025 | -0.027 ± 0.034 | -0.0325 ± 0.042 | -0.0425 ± 0.0021 | -0.089 ± 0.02 | -0.189 ± 0.1 | -0.039 ± 0.0099 | -0.208 ± 0.02 | -0.0305 ± 0.0092 | 0.003 ± 0.027 | -0.005 ± 0.0057
